We go through four molecules from patent US20080064679A1, “Water Soluble Cannabinoids” (priority 2004, published 2008).

The target in series [1] is T1, human CB1 receptor (Homo sapiens, UniProt P21554).
T1 construct: expressed in transfected cells; b94 says CHO for CB1
As to the kind of experiment: CB1 receptor binding, [3H]CP55,940 displacement in membranes of transfected cells. To be noted: CB1 Ki. Here is the method:
(§1) For the in vivo studies, the drugs were dissolved in either saline or emulphor:ethanol:saline (E:E:S) as indicated.
(§2) cLogP calculations. Absolute solubility determinations were not performed. Rather, cLogP calculations were performed using the CS ChemDraw Ultra software (Cambridge Soft Corporation, Cambridge, Mass.). Receptor Binding. HEK-293 cells stably expressing the human CB1 receptor were cultured in DMEM with 10% FBS and Chinese Hamster Ovary (CHO) cells stably expressing the human CB2 receptor were cultured in DMEM with 10% FCS. Cells were harvested by replacement of the media with cold phosphate-buffered saline containing 1 mM EDTA followed by centrifugation at 1000×g for 5 min at 4° C. The pellet was resuspended in 50 mM Tris-HCl containing 320 mM sucrose, 2 mM EDTA and 5 mM MgCl2 (pH 7.4) (centrifugation buffer), then centrifuged at 1000×g for 10 min at 4° C., and the resulting supernatant was saved. This process was repeated twice. The supernatant fractions were combined and centrifuged at 40,000×g for 30 min at 4° C. The resulting P2 pellet was resuspended in assay buffer (50 mM Tris-HCl (pH 7.4), 3 mM MgCl2, 0.2 mM EGTA, and 100 mM NaCl) and protein was determined by the method of Bradford ENRfu(Bradford 1976). Membranes were stored at −80° C. until use. […] The assay was incubated at 30° C. for 1 hr and terminated by addition of ice cold 50 mM Tris-HCl plus BSA (1 mg/ml) (pH 7.4) followed by filtration under vacuum through Whatman GF/B glass fiber filters with 3 washes with cold Tris buffer. Bound radioactivity was determined by liquid scintillation spectrophotometry at 50% efficiency after extraction by shaking samples for 30-60 min with Budget-Solve scintillation fluid. Data are reported as the mean±SEM of three experiments, each performed in triplicate. Ki values were calculated from displacement data using EBDA (Equilibrium Binding Data Analysis; BIOSOFT, Milltown, N.J.). [^35S]GTPγS Binding Assays. Concentration-effect curves were generated by incubating membranes (10 μg prepared from CB1 expressing cells as described above) in assay buffer containing BSA (1 mg/ml) with various concentrations of test compounds in the presence of 20 μM GDP and 0.1 nM [^35S]GTPγS in a 1 ml total volume. […] Basal binding was assessed in the absence of agonist, and nonspecific binding was measured in the presence of 10 μM GTPγS. The reaction was incubated for 90 min at 30° C. and terminated by filtration under vacuum through Whatman GF/B glass fiber filters with 3 washes with cold (4° C.) Tris buffer (50 mM Tris-HCl, pH 7.4). Bound radioactivity was determined by liquid scintillation spectrophotometry at 95% efficiency after extraction overnight in ScintiSafe Econo 1 scintillation fluid. Data are reported as mean±SEM of three experiments, each performed in triplicate. Nonlinear regression analysis was conducted by iterative fitting using JMP (SAS for Macintosh). Net-stimulated [^35S]GTPγS binding is defined as [^35S]GTPγS binding in the presence of drug minus basal and percent stimulation is expressed as (net stimulated [^35S]GTPγS binding/basal)×100%. Behavioral Evaluations. All animals were allowed to acclimate to the observation room overnight. Behavioral effects were assessed in the tetrad model in order to measure potency in producing antinociception, catalepsy, hypothermia, and hypomobility. The baselines for tail-flick latency (2-4 seconds) and rectal temperature were determined prior to i.v. injections. Baseline rectal temperatures were measured using a telethermometer and a thermometer probe inserted to 25 mm (Yellow Springs Instrument Co., Yellow Springs, Ohio). The mice were then given either an i.v. i.c.v. injection of the analog. The mice were placed in individual photocell activity chambers 5 min later. Spontaneous activity was monitored for 10 min in a Digiscan Animal Activity Monitor (Omnitech Electronice, Inc., Columbus, Ohio) as measured by the number of interruptions of 16 photocell beams per chamber.

A further series concerns the target T2, human CB2 receptor (Homo sapiens, UniProt P34972).
T2 construct: expressed in transfected cells; b94 says HEK for CB2
As to the kind of experiment: CB2 receptor binding, [3H]CP55,940 displacement in membranes of transfected cells. To be noted: Table 1B, mean±SEM. On the procedure: as §2, with “chamber. The total number of beam interruptions during the 10-min period was determined and presented as total counts.” for “chamber.”

How the values of series [2] were obtained: By “water-soluble” we mean that 1 mg of material in 1 ml of water gives a clear solution and is water miscible.
as §1

Series [3] concerns the target T1, human CB1 receptor. As to the kind of experiment: [35S]GTPγS binding assay in membranes of CB1 expressing cells. The series is classed as biochemical. Here is the method:
as §1, §2
For orientation: GTPγS resists hydrolysis and so accumulates on activated G proteins.

Series [4] deals with mice. As to the kind of experiment: Spontaneous activity (S.A.), mouse tetrad. The series is classed as in vivo. To be noted: Mus musculus, iv, vehicle E:E:S (1:1:18), read-out: S.A. ED50 (reducing spontaneous activity).
Series [5] relates to mice. As to the kind of experiment: Tail-flick antinociception (T.F.), mouse tetrad. To be noted: Mus musculus, iv, mice, i.v., vehicle E:E:S (1:1:18); read-out: T.F. ED50 (antinociception in the tail-flick procedure). The format is in vivo.
In series [6] the test system is mice. As to the kind of experiment: Rectal temperature (R.T.), mouse tetrad. The series is classed as in vivo. To be noted: Mus musculus, iv, vehicle E:E:S (1:1:18), read-out: R.T. ED50 (lowering rectal temperature).
In series [7] the test system is mice. As to the kind of experiment: Tetrad model, all four behavioral measures together (time course, oral and i.c.v. administration). The format is in vivo, mouse. To be noted: i.c.v.; analogs dissolved in water, THC in emulphor:ethanol:saline; Table 5 not given.
Setting [8] is: 1 mg of analog in 1 ml of water, visual observation.

Read-outs that look alike come from different tables or passages of the source.

T1 sequence (P21554 whole entry): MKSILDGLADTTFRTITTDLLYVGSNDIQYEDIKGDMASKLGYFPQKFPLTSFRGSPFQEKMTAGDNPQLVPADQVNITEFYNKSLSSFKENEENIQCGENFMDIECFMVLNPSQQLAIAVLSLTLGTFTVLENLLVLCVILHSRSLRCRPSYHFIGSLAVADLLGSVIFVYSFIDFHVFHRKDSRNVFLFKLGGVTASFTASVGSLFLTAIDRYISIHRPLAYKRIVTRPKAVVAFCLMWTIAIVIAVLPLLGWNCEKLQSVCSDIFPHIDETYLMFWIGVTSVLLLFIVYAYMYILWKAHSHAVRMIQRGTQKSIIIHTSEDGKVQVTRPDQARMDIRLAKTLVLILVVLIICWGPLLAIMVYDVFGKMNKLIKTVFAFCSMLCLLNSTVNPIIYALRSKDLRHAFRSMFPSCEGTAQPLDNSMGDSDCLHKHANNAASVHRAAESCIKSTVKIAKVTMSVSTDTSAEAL
T2 sequence (P34972 whole entry): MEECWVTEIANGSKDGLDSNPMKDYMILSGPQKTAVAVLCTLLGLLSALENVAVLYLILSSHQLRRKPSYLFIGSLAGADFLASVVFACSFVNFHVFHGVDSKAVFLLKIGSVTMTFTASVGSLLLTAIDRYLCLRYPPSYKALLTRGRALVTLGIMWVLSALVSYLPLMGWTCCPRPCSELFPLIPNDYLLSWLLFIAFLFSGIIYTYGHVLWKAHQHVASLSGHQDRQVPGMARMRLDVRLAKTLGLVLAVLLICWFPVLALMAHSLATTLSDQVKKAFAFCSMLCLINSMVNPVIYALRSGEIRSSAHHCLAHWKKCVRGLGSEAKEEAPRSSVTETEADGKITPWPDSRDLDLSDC

The term Ki denotes a dissociation constant, usually derived from enzyme kinetics or from competition with a known ligand. Regarding `CC1=CC[C@@H]2[C@@H](C1)c1c(O)cc(C(C)(C)CCCCNC(=O)Cc3nc(-c4ccccc4)oc3C)cc1OC2(C)C` [O-2590, 5-Methyl-2-phenyl-oxazol-4-yl-acetamide], the inhibition constant Ki was determined as 890 ± 161 nM on human CB1 receptor [1] (Table 1B, mean±SEM) and 169 ± 39.1 nM on human CB2 receptor (CB2 Ki). The “Solubility (water-soluble)” value in series [2] (setting [8]) is “No”.

What is called EC50 is the concentration at which the effect is half-maximal. The low end stands for higher potency in that assay, the high end for lower potency in that assay. `CC1=CC[C@@H]2[C@@H](C1)c1c(O)cc(C(C)(C)CCCCNC(=O)N3CCOCC3)cc1OC2(C)C` [O-2619, Morpholino-1-carboxylic acid amide]: the values for the Ki on human CB1 receptor [1] and on human CB2 receptor (read-out: CB2 Ki) were 18.6 ± 3.94 nM and 2.26 ± 0.38 nM, respectively. The molecule also showed an EC50 on human CB1 receptor [3] (CB1 EC50, [35S]GTPγS binding, mean±SEM) of 86 ± 3.1 nM. For the same molecule, the Emax on human CB1 receptor [3] (maximal GTPγS binding as percentage of stimulation produced by CP 55,940, read-out: CB1 % CP Stim) turned out to be 116 ± 7.94%. Moreover, in series [2], the “Solubility (water-soluble)” value is listed as “No”.

On to `CC1=CC[C@@H]2[C@@H](C1)c1c(O)cc(C(C)(C)CCCCN(C(=O)N3CCOCC3)C(=O)N3CCOCC3)cc1OC2(C)C` [O-2620, Di(morpholino-1-carboxylic acid) amide], for which the Ki on human CB1 receptor [1] turned out to be 3020 ± 579 nM; at human CB2 receptor (read-out: CB2 Ki) it was 772 ± 60.5 nM.

A word on the ED50: it is the midpoint of the dose-response relation. As for `CCCCCc1cc(O)c2c(c1)OC(C)(C)C1CCC(C)=CC21` (stereo not drawn) [Δ^9-THC, Δ^9-tetrahydrocannabinol, reference compound], the ED50 in the series with mice [4] worked out at 2.23 µmol/kg; in the series on mice [5] it was 2.77 µmol/kg; in the series on mice [6], 2.23 µmol/kg. The “Solubility (water-soluble)” value in series [2] (setting [8]) was “No”. In the series with mice [7], the “Activity in the behavioral tests after i.c.v. injection” value is reported as “active with similar potencies in all tests, with the exception of weak antinociceptive activity”.
